Laboratory results from patent US11420995B2, “Anti-infective and anti-inflammatory compounds” (Synovo GmbH, priority 2017, dated 2022).

What was measured:
[1] = tested on: Staphylococcus aureus Newman; assay: Staphylococcus infection in mice (body weight, CFU recovered from kidney); assay type: in vivo; details: for Ability of mice to clear an infection by Staphylococcus aureus Newman; bacteria quantified as CFU recovered from a standard sample of kidney: FIG. 6
Staphylococcus carnosus = assay: Inhibition of growth of Staphylococcus carnosus (optical density of culture); details: after 9-20 h, No compound 0.887
Experimental: (§1) Activity of substances in the inhibition of growth of bacteria. Bacteria including the species Escherichia coli, Bacillus pumilus, Salmonella sp., Micrococcus luteus and Staphylococcus carnosus are cultured in appropriate media (Luria broth for all except S. canosus). Overnight cultures are mixed with fresh medium to reach an optical density at 600 nM of ca. 0.1 AU. These cultures are mixed with solutions of substances to be tested at concentrations ranging from 100 μM to 0.05 μM in a microtitre plate. The growth of the culture is monitored by measuring the optical density at various times after the addition of the inhibitor. Reduction in the rate of increase in optical density corresponds to an inhibition of bacterial growth.

[2] = tested on: mice treated with dextran sulfate (colitis); assay: Dextran sulfate colitis in mice (inflammatory bowel disease model); assay type: in vivo, mouse (C57 BLK6 or BALBc); details: N=8; for Body weight and clinical score of BALBc mice at day 9 after commencing 2.5% DSS in water: FIG. 18
From the text: The potential efficacy of a Compound for Inflammatory bowel disease may be modeled as follows. C57 BLK6 or BALBc mice are provided with drinking water containing 2.5% or 2.8% dextran sulfate. Animals are weighed and observed for signs of intestinal disturbance daily. Signs include diarrhea or occult blood. Compound is formulated by mixing with a solution of 0.1 up to 1% citric acid depending on concentration. Compound is provided by oral gavage daily.

Salmonella typhimurium = assay: Inhibition of growth of Salmonella typhimurium (optical density of culture); details: after 9-20 h, No compound 0.943
Experimental: as §1

[3] = tested on: Salmonella typhimurium phagocytosed by J774 murine cells; assay: Intracellular killing of S. Typhimurium by mouse macrophage cellline J 774 A.1 (surviving CFU); assay type: cell-based; details: FIG. 4; compared with azithromycin
Experimental: Substances may act directly on bacteria, or they may act to promote the killing of the bacteria by phagocytes. To measure this effect, cultures murine macrophages are incubated with a test bacteria and the number of bacteria surviving are counted in terms of the viable colony forming units (CFU). The method for determining the rate of phagocytosis is as follows:
Intracellular killing of S. Typhimurium by mouse macrophage cellline J 774 A.1 • seed a monolayer of cells in 200 μl Media into the wells of a 96 well plates • incubate O/N 37° C. • remove medium and add fresh medium • add Bacteria (Salmonella typhimurium) e.g. 5 μl of 1:100 diluted O/N culture (MOI=10) (=10^8 cfu/ml) • centrifuge 10 min 800 g (2000 rpm) • incubate 20-30 minutes at 37° C. (phagocytosis) • remove media • wash 1-2× with PBS • add medium with 100 μg/ml Gentamicin, stock: 10 mg/ml (=1:100) • incubate 45′ at 37° C. • wash 2× with PBS • add fresh medium (200 μl/well) • add compounds to test • incubate 2-3 hours at 37° C. • remove medium • lyse cells with water: add 200 μl H2O incubate 10′, push a few times through 27 gauge needle using a 1 ml syringe • plate […] 1:10 dilution onto LB-agar plates (=1:100 dil)
Overnight culture of Salmonella thyphimurium=˜[…]
Overnight culture of Staphylococcus carnosus=˜5×10^9 cfu/ml MOI=50 (=5 μl of 1:10 dil. O/N culture)
MOI=Multiplicity of Infection […]

Row | Compound | Ability of mice to clear an infection by Staphylococcus aureus Newman; bacteria quantified as CFU recovered from a standard sample of kidney [1] | Absorbance of culture medium at 600 nm (Staphylococcus carnosus; Conc. 0.8 μM) | Absorbance of culture medium at 600 nm (Staphylococcus carnosus; Conc. 2 μM) | Absorbance of culture medium at 600 nm (Staphylococcus carnosus; Conc. 3 μM) | Absorbance of culture medium at 600 nm (Staphylococcus carnosus; Conc. 6 μM) | Absorbance of culture medium at 600 nm (Staphylococcus carnosus; Conc. 13 μM) | Absorbance of culture medium at 600 nm (Staphylococcus carnosus; Conc. 25 μM) | Absorbance of culture medium at 600 nm (Staphylococcus carnosus; Conc. 50 μM) | Absorbance of culture medium at 600 nm (Staphylococcus carnosus; Conc. 100 μM) | Absorbance of culture medium at 600 nm (Salmonella typhimurium; Conc. 0.8 μM) | Absorbance of culture medium at 600 nm (Salmonella typhimurium; Conc. 2 μM) | Absorbance of culture medium at 600 nm (Salmonella typhimurium; Conc. 3 μM) | Absorbance of culture medium at 600 nm (Salmonella typhimurium; Conc. 6 μM) | Absorbance of culture medium at 600 nm (Salmonella typhimurium; Conc. 13 μM) | Absorbance of culture medium at 600 nm (Salmonella typhimurium; Conc. 25 μM) | Absorbance of culture medium at 600 nm (Salmonella typhimurium; Conc. 50 μM) | Absorbance of culture medium at 600 nm (Salmonella typhimurium; Conc. 100 μM) | Body weight and clinical score of BALBc mice at day 9 after commencing 2.5% DSS in water [2] | further results
1 | CC[C@H]1OC(=O)[C@H](C)[C@@H](O[C@H]2C[C@@](C)(OC)[C@@H](O)[C@H](C)O2)[C@H](C)[C@@H](O[C@@H]2O[C@H](C)C[C@H](N(C)C)[C@H]2O)[C@](C)(O)C[C@@H](C)CN(C)[C@H](C)[C@@H](O)[C@]1(C)O [Azithromycin, reference compound] | decreases recovered bacteria in a dose responsive manner | – | – | – | – | – | – | – | – | – | – | – | – | – | – | – | – | – | –
2 | CC[C@H]1OC(=O)[C@H](C)[C@@H](O[C@H]2C[C@@](C)(OC)[C@@H](O)[C@H](C)O2)[C@H](C)[C@@H](O[C@@H]2O[C@H](C)CC(N(C)C)[C@H]2O[N+](=O)[O-])[C@](C)(O)C[C@@H](C)CN(C)[C@H](C)[C@@H](OC(C)=O)[C@]1(C)O (stereo partly shown) [Compound E-2] | decreases recovered bacteria in a dose responsive manner | 0.760 | 0.766 | 0815 | 0.626 | 0.542 | 0.456 | 0.425 | 0.395 | 0.452 | 0.441 | 0.410 | 0.382 | 0.621 | 0.314 | 0.168 | 0.251 | – | Body weight of BALBc mice at day 7 after commencing 2.5% DSS in water ([2]; FIG. 17): protects against weight loss; Killing of phagocytosed Salmonella typhimurium by murine macrophages [3]: stimulates the killing of bacterial cells by macrophages
3 | CCCCCCCCCCN(C)C1C[C@@H](C)O[C@@H](O[C@@H]2[C@@H](C)[C@H](O[C@H]3C[C@@](C)(OC)[C@@H](O)[C@H](C)O3)[C@@H](C)C(=O)O[C@H](CC)[C@@](C)(O)[C@H](O)[C@@H](C)N(C)C[C@H](C)C[C@@]2(C)O)[C@@H]1O (stereo partly shown) [Compound E-3] | – | – | – | – | – | – | – | – | – | – | – | – | – | – | – | – | – | stimulate inflammation | –
4 | CCC(=O)O[C@@H]1[C@@H](C)N(C)C[C@H](C)C[C@@](C)(O)[C@H](O[C@@H]2O[C@H](C)C[C@H](N(C)C)[C@H]2O[N+](=O)[O-])[C@@H](C)[C@H](O[C@H]2C[C@@](C)(OC)[C@@H](O)[C@H](C)O2)[C@@H](C)C(=O)O[C@H](CC)[C@@]1(C)O [Compound E-5] | decreases recovered bacteria in a dose responsive manner | 0.819 | 0.726 | 0.805 | 0.525 | 0.452 | 0.403 | 0.347 | 0.302 | 0.574 | 0.568 | 0.511 | 0.478 | 0.437 | 0.396 | 0.395 | 0.390 | – | Response of mice to an infection by Staphylococcus (recovery of weight) ([1]; FIG. 5): faster recovery of weight due to faster clearance of bacteria
5 | CC[C@H]1OC(=O)[C@H](C)[C@@H](O[C@H]2C[C@@](C)(OC)[C@@H](O)[C@H](C)O2)[C@H](C)[C@@H](O[C@@H]2O[C@H](C)CC(N(C)C)[C@H]2OC(C)=O)[C@](C)(O)C[C@@H](C)CN(C)[C@H](C)[C@@H](O[N+](=O)[O-])[C@]1(C)O (stereo partly shown) [Compound E-9] | – | 0.765 | 0.737 | 0.830 | 0.752 | 0.677 | 0.426 | 0.522 | 0.545 | 0.300 | 0.272 | 0.327 | 0.348 | 0.382 | 0.395 | 0.319 | 0.221 | – | –
6 | CCC(=O)O[C@@H]1C(N(C)C)C[C@@H](C)O[C@H]1O[C@@H]1[C@@H](C)[C@H](O[C@H]2C[C@@](C)(OC)[C@@H](OC(=O)CC)[C@H](C)O2)[C@@H](C)C(=O)O[C@H](CC)[C@@](C)(O)[C@H](OC(=O)CC)[C@@H](C)N(C)C[C@H](C)C[C@@]1(C)OC(=O)CC (stereo partly shown) [Compound E-51] | – | – | – | – | – | – | – | – | – | – | – | – | – | – | – | – | – | – | Body weight and clinical score of BALBc mice at day 7 after commencing 2.5% DSS in water ([2]; FIG. 19, weight greater than Vehicle): protect against inflammation
7 | CCCC(=O)O[C@@H]1C(N(C)C)C[C@@H](C)O[C@H]1O[C@@H]1[C@@H](C)[C@]2(O)O[C@@]1(C)C[C@@H](C)CN(C)[C@H](C)[C@@H](O)[C@](C)(O)[C@@H](CC)OC(=O)[C@@H]2C (stereo partly shown) [Compound E-238] | – | – | – | – | – | – | – | – | – | – | – | – | – | – | – | – | – | stimulate inflammation | –
8 | CCCC(=O)O[C@@H]1[C@@H](C)N(C)C[C@H](C)C[C@@](C)(O)[C@H](O[C@@H]2O[C@H](C)CC(N(C)C)[C@H]2O)[C@@H](C)[C@H](O[C@H]2C[C@@](C)(OC)[C@@H](OC(=O)CCC)[C@H](C)O2)[C@@H](C)C(=O)O[C@H](CC)[C@@]1(C)O (stereo partly shown) [Compound E-553] | – | – | – | – | – | – | – | – | – | – | – | – | – | – | – | – | – | stimulate inflammation | –
